Data: patent US5138069A (E. I. Du Pont de Nemours and Company, priority 1988, dated 1992)
Where two headings read alike, the source gives them in different places.

Tests used:
[1] = biological target: AII receptor; assay: Angiotensin II receptor binding (displacement of 3H-AII); conditions: read-out: Angiotensin II Receptor Binding IC50, rat adrenal cortical microsomes, 2 nM 3H-AII, 1 hour, room temperature
Experimental: The assay was carried out according to the method described by [Glossmann et al., J. Biol. Chem., 249, 825 (1974)], but with some modifications. The reaction mixture contained rat adrenal cortical microsomes (source of AII receptor) in Tris buffer and 2 nM of ^3 H-AII with or without potential AII antagonist. This mixture was incubated for 1 hour at room temperature and the reaction was subsequently terminated by rapid filtration and rinsing through glass micro-fibre filter. Receptor-bound ^3 H-AII trapped in filter was quantitated by scintillation counting.
(§1) Compounds listed in Table 26 were tested in the same manner as described for Table 25, except that in the test for antihypertensive effects in renal hypertensive rats, the compounds were administered orally at 30 mg/kg and intravenously at 3 mg/kg.

[2] = tested on: Renal Hypertensive Rats; assay: Antihypertensive effects in renal hypertensive rats; assay type: in vivo; conditions: Rattus norvegicus; for minimal effective dose at 10 mg/kg / minimal effective dose at 100 mg/kg: Table 25; for minimal effective dose at 10 mg/kg: 10 mg/kg or less; for minimal effective dose at 100 mg/kg: 100 mg/kg or less
Experimental: This procedure increases blood pressure by increasing renin production with consequent elevation of AII levels. Compounds are administered orally at 100 mg/kg and/or intravenously via a cannula in the jugular vein at 10 mg/kg. Arterial blood pressure is continuously measured directly through a carotid artery cannula and recorded using a pressure transducer and a polygraph. Blood pressure levels after treatment are compared to pretreatment levels to determine the antihypertensive effects of the compounds (See Table 25).
as §1

[3] = Table 25, tested as sodium salt
[4] = tested as sodium salt, intravenous

Structure (SMILES)	IC50 ([1]; Table 25) [nM]	minimal effective dose at 10 mg/kg ([2]; intravenous) [mg/kg]	minimal effective dose at 100 mg/kg ([2]; oral) [mg/kg]	IC50 [1, 3] [nM]	minimal effective dose at 10 mg/kg [2, 4] [mg/kg]	minimal effective dose at 100 mg/kg ([2]; tested as sodium salt, oral) [mg/kg]	other results
CCCCCc1nccn1Cc1ccc(NC(=O)c2ccccc2C(=O)O)cc1 [Example 65]	240	< 10	> 100	–	–	–	–
CCCCCCc1nccn1Cc1ccc(NC(=O)c2ccccc2C(=O)O)cc1 [Example 66]	350	< 10	> 100	–	–	–	–
CCCCCCCc1nccn1Cc1ccc(NC(=O)c2ccccc2C(=O)O)cc1 [Example 67]	1100	< 10	> 100	–	–	–	–
COc1ccc(Cc2nccn2Cc2ccc(NC(=O)c3ccccc3C(=O)O)cc2)cc1 [Example 70]	2500	< 10	> 100	–	–	–	–
CSc1ncc(CO)n1Cc1ccc(NC(=O)c2ccccc2C(=O)O)cc1 [Example 72, 1-[4-(2-Carboxybenzamido)-benzyl]-5-hydroxymethyl-2-(methylthio)-imidazole]	6500	< 10	> 100	–	–	–	–
CCCCc1nc(C#N)c(C#N)n1Cc1ccc(NC(=O)c2ccccc2NS(=O)(=O)C(F)(F)F)cc1 [Example 75, 2-Butyl-4,5-dicyano-1-[4-((N-trifluoromethanesulfonyl)anthranilamido)-benzyl]imidazole]	–	–	–	7600	< 10	< 100	–
CCCCc1nc(Cl)c(CC(=O)OC)n1Cc1ccc(N(Cc2ccccc2)C(=O)c2ccccc2NS(=O)(=O)C(F)(F)F)cc1 [Example 76, Methyl 2-butyl-1-[4-(N-benzyl-N-(2-(trifluoromethanesulfonamido)benzoyl)-amino)benzyl]-4-chloroimidazole-5-acetate]	–	–	–	2700	< 10	> 100	–
CCCCc1nc(Cl)c(COC)n1Cc1ccc(N(C)C(=O)c2c(Cl)ccc(Cl)c2C(=O)O)cc1 [Example 77, 2-n-Butyl-4-chloro-5-methoxymethyl-1-[4-(N-methyl-2-carboxy-3,6-dichlorobenzamid)benzyl]imidazole]	–	–	–	5700	> 100	> 100	–
CCCCc1nc(Cl)c(COC)n1Cc1ccc(C(=O)Nc2ccccc2C(=O)O)cc1 [Example 78]	–	–	–	8000	< 10	< 100	–
CCCCc1nc(Cl)c(COC)n1Cc1ccc(C(=O)Nc2nnn[nH]2)cc1 [Example 79]	–	–	–	500	< 10	> 100	–
CCCCc1nc(Cl)c(COC)n1Cc1ccc(C(=O)Nc2cccc(C)c2C(=O)O)cc1 [Example 80]	–	–	–	500	< 10	< 100	–
CCCCc1nc(Cl)c(COC)n1Cc1ccc(C(=O)Nc2ccccc2-c2nnn[nH]2)cc1 [Example 81]	–	–	–	570	> 100	> 100	–
CCCCc1nc(Cl)c(CO)n1Cc1ccc(-c2cccc(C(=O)OCOC(=O)C(C)(C)C)c2)cc1 [Example 88, 1-[(3'-Trimethylacetoxymethoxycarbonylbiphenyl-4-yl)methyl]-2-butyl-4-chloro-5-hydroxymethylimidazole]	1300	–	< 100	–	–	–	–
CCCCc1nc(Cl)c(COC)n1Cc1ccc(-c2ccccc2-c2nnn[nH]2)cc1 [Example 90]	–	–	–	20	< 10	< 100	–
CCCCc1nc([N+](=O)[O-])c(CO)n1Cc1ccc(-c2ccccc2C(=O)O)cc1 [Example 91, 1-[(2'-carboxybiphenyl-4-yl)-methyl]-2-butyl-5-hydroxymethyl-4-nitroimidazole]	260	< 10	> 100	–	–	–	–
CCCCc1nc(C(F)(F)F)c(CO)n1Cc1ccc(-c2ccccc2C(=O)O)cc1 [Example 92, 1-[(2'-carboxybiphenyl-4-yl)-methyl]-2-butyl-5-hydroxymethyl-4-trifluoromethylimidazole]	62	< 10	–	–	–	–	–
CCCCc1nc(C(F)(F)C(F)(F)F)c(CO)n1Cc1ccc(-c2ccccc2C(=O)O)cc1 [Example 92A, 1-[(2'-carboxybiphenyl-4-yl)methyl]-2-butyl-5-hydroxymethyl-4-pentafluoroethylimidazole]	–	–	–	–	–	–	IC50 ([1]; Table 26): 40 nM; minimal effective dose at 3 mg/kg ([2]; Table 26, intravenous, 3 mg/kg): < 3 mg/kg; minimal effective dose at 30 mg/kg ([2]; Table 26, oral, 30 mg/kg): < 30 mg/kg
CCCCc1nc(Cl)c(CO)n1Cc1ccc(-c2ccccc2C(=O)O)cc1 [Example 94, 2-butyl-1-[(2'-carboxybiphenyl-4-yl)methyl]-4-chloro-5-hydroxymethylimidazole]	280	< 10	< 100	–	–	–	–
